# Values joined by “and” are separate entries in the source; they are usually repeats but may differ in a detail not shown here. Equal entries are not always repeated. Results filed as inconclusive are left out.
# Test system: Lewis lung carcinoma i.m., BDF1 mice, T/C %
# Assay: NCI In Vivo Anticancer Drug Screen. Data for tumor model Lewis Lung Carcinoma (intramuscular) in B6D2F1 (BDF1) mice
# Procedure, shortened: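 Transplantable tumour model; readout survival or tumour size; value = treated (T) / vehicle control (C).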
smiles,measurement,setting,value
Cc1n(Cc2ccccc2)c2c([n+]1C)C(=O)c1ccccc1C2=O,T/C,"endpoint: mean tumor weight (est.), dose: 0.13 mg/kg/injection, schedule: Q01DX011 (ip), vehicle: saline with Tween-80, higher = larger tumour",48 % of control
same,T/C,"endpoint: mean tumor weight (est.), dose: 0.25 mg/kg/injection, schedule: Q01DX011 (ip), vehicle: saline with Tween-80, higher = larger tumour",50 % of control
same,T/C,"endpoint: mean tumor weight (est.), dose: 0.5 mg/kg/injection, schedule: Q01DX011 (ip), vehicle: saline with Tween-80, higher = larger tumour",31 % of control
same,T/C,"endpoint: mean tumor weight (est.), dose: 1.0 mg/kg/injection, schedule: Q01DX011 (ip), vehicle: saline with Tween-80, higher = larger tumour",36 % of control
same,T/C,"endpoint: mean tumor weight (est.), dose: 2.0 mg/kg/injection, schedule: Q01DX011 (ip), vehicle: saline with Tween-80, higher = larger tumour",43 % of control
same,T/C,"endpoint: median survival time, dose: 0.13 mg/kg/injection, schedule: Q01DX011 (ip), vehicle: saline with Tween-80, higher = longer survival",110 % of control
same,T/C,"endpoint: median survival time, dose: 0.25 mg/kg/injection, schedule: Q01DX011 (ip), vehicle: saline with Tween-80, higher = longer survival",100 % of control
same,T/C,"endpoint: median survival time, dose: 0.5 mg/kg/injection, schedule: Q01DX011 (ip), vehicle: saline with Tween-80, higher = longer survival",106 % of control
same,T/C,"endpoint: median survival time, dose: 1.0 mg/kg/injection, schedule: Q01DX011 (ip), vehicle: saline with Tween-80, higher = longer survival",89 % of control
same,T/C,"endpoint: median survival time, dose: 2.0 mg/kg/injection, schedule: Q01DX011 (ip), vehicle: saline with Tween-80, higher = longer survival",89 % of control
CN1Cc2c(ccc3c2OCO3)[C@@H]2[C@H](O)Cc3cc4c(cc3[C@@H]21)OCO4,T/C,"endpoint: mean tumor weight, dose: 62.5 mg/kg/injection, schedule: Q01DX011 (ip), vehicle: saline, higher = larger tumour",75 % of control
same,T/C,"endpoint: mean tumor weight, dose: 125.0 mg/kg/injection, schedule: Q01DX011 (ip), vehicle: saline, higher = larger tumour",47 % of control
same,T/C,"endpoint: mean tumor weight, dose: 500.0 mg/kg/injection, schedule: Q01DX011 (ip), vehicle: saline, higher = larger tumour",32 % of control
same,T/C,"endpoint: median survival time, dose: 62.5 mg/kg/injection, schedule: Q01DX011 (ip), vehicle: saline, higher = longer survival",91 % of control
same,T/C,"endpoint: median survival time, dose: 125.0 mg/kg/injection, schedule: Q01DX011 (ip), vehicle: saline, higher = longer survival",95 % of control
same,T/C,"endpoint: median survival time, dose: 500.0 mg/kg/injection, schedule: Q01DX011 (ip), vehicle: saline, higher = longer survival",93 % of control
O=[N+]([O-])c1cc(S(=O)(=O)OCC2CO2)ccc1Cl (stereo not given),T/C,"endpoint: mean tumor weight (est.), dose: 6.25 mg/kg/injection, schedule: Q01DX011 (ip), vehicle: saline with Tween-80, higher = larger tumour",66 % of control
same,T/C,"endpoint: mean tumor weight (est.), dose: 12.5 mg/kg/injection, schedule: Q01DX011 (ip), vehicle: saline with Tween-80, higher = larger tumour",70 % of control
same,T/C,"endpoint: mean tumor weight (est.), dose: 25.0 mg/kg/injection, schedule: Q01DX011 (ip), vehicle: saline with Tween-80, higher = larger tumour",47 % of control
same,T/C,"endpoint: median survival time, dose: 6.25 mg/kg/injection, schedule: Q01DX011 (ip), vehicle: saline with Tween-80, higher = longer survival",100 % of control
same,T/C,"endpoint: median survival time, dose: 12.5 mg/kg/injection, schedule: Q01DX011 (ip), vehicle: saline with Tween-80, higher = longer survival",90 % of control
same,T/C,"endpoint: median survival time, dose: 25.0 mg/kg/injection, schedule: Q01DX011 (ip), vehicle: saline with Tween-80, higher = longer survival",101 % of control
CO[C@@]12[C@H](COC(N)=O)C3=C(C(=O)C(C)=C(N)C3=O)N1C[C@@H]1N[C@@H]12,T/C,"endpoint: mean tumor weight, dose: 0.5 mg/kg/injection, schedule: Q01DX005 (ip), vehicle: other, higher = larger tumour",101 % of control
same,T/C,"endpoint: mean tumor weight, dose: 1.0 mg/kg/injection, schedule: Q01DX005 (ip), vehicle: other, higher = larger tumour",82 % of control
same,T/C,"endpoint: mean tumor weight, dose: 2.0 mg/kg/injection, schedule: Q01DX005 (ip), vehicle: other, higher = larger tumour",75 % of control
same,T/C,"endpoint: median survival time, dose: 0.25 mg/kg/injection, schedule: Q01DX009 (ip), vehicle: Klucel (hydroxypropylcellulose) (HPC), higher = longer survival",86 % of control and 112 % of control
same,T/C,"endpoint: median survival time, dose: 0.25 mg/kg/injection, schedule: Q01DX011 (ip), vehicle: saline, higher = longer survival",112 % of control
same,T/C,"endpoint: median survival time, dose: 0.5 mg/kg/injection, schedule: Q01DX005 (ip), vehicle: other, higher = longer survival",90 % of control
same,T/C,"endpoint: median survival time, dose: 0.5 mg/kg/injection, schedule: Q01DX005 (ip), vehicle: saline, higher = longer survival",107 % of control
same,T/C,"endpoint: median survival time, dose: 0.5 mg/kg/injection, schedule: Q01DX009 (ip), vehicle: Klucel (hydroxypropylcellulose) (HPC), higher = longer survival",101 % of control and 110 % of control
same,T/C,"endpoint: median survival time, dose: 0.5 mg/kg/injection, schedule: Q01DX011 (ip), vehicle: saline, higher = longer survival",114 % of control
same,T/C,"endpoint: median survival time, dose: 1.0 mg/kg/injection, schedule: Q01DX005 (ip), vehicle: saline, higher = longer survival",90 % of control
same,T/C,"endpoint: median survival time, dose: 1.0 mg/kg/injection, schedule: Q01DX009 (ip), vehicle: Klucel (hydroxypropylcellulose) (HPC), higher = longer survival",97 % of control
same,T/C,"endpoint: median survival time, dose: 1.0 mg/kg/injection, schedule: Q01DX011 (ip), vehicle: water, higher = longer survival",86 % of control
same,T/C,"endpoint: median survival time, dose: 2.0 mg/kg/injection, schedule: Q01DX005 (ip), vehicle: other, higher = longer survival",114 % of control
same,T/C,"endpoint: median tumor weight (est.), dose: 0.5 mg/kg/injection, schedule: Q01DX005 (ip), vehicle: saline, higher = larger tumour",64 % of control
same,T/C,"endpoint: median tumor weight (est.), dose: 1.0 mg/kg/injection, schedule: Q01DX005 (ip), vehicle: saline, higher = larger tumour",78 % of control
O=C1CN(CCN2CC(=O)NC(=O)C2)CC(=O)N1,T/C,"endpoint: mean tumor weight, dose: 25.0 mg/kg/injection, schedule: Q01DX011 (ip), vehicle: steriod suspending solution, higher = larger tumour",68 % of control and 80 % of control
same,T/C,"endpoint: median survival time, dose: 12.5 mg/kg/injection, schedule: Q01DX011 (ip), vehicle: steriod suspending solution, higher = longer survival",111 % of control and 117 % of control
same,T/C,"endpoint: median survival time, dose: 25.0 mg/kg/injection, schedule: Q01DX011 (ip), vehicle: steriod suspending solution, higher = longer survival",110 % of control and 114 % of control
